In patent publication US10206906B2, “Synergistic combination of a phenolic-rich maple syrup extract and an antibiotic” (priority 2015, dated 2019):
Values after ≈ are worked out from the molar mass of the structure shown.

Tests used:
[1] = test system: proton motive force-driven multidrug efflux pump of P. mirabilis HI4320; experiment: Ethidium bromide (EtBr) efflux assay; assay type: cell-based, Proteus mirabilis; conditions: PRMSE, catechol at 0.25 times the MIC; CCCP 100 μM; untreated cells 35.9
Procedure: (§1) An overnight grown culture of each strain is diluted 1:100 using MHB-II broth to a final volume of 10 mL and grown to an OD600 of 0.8-1.0 (at 37° C., 150 rpm). […] The tubes are incubated for 1 h (37° C., 150 rpm). The inoculum is then adjusted to 0.4 OD600 with MHB-II broth containing 5 μM EtBr and 2 mL aliquots of this mixture are pelleted (5000×g, 10 min at 4° C.). The pellets are incubated on ice immediately, resuspended in 1 mL of MHB-II, and aliquoted (200 μL) into a polystyrene 96 well black, clear-bottom plate (Corning™, Fisher Scientific, ON, Canada). EtBr efflux from the cells is monitored at room temperature using the microplate reader (ex/em 530/600 nm). Readings are taken at 5 min intervals for 1 h to monitor efflux pump activity. The background fluorescence of the medium is subtracted from all measurements and the assay is repeated independently in triplicate.

[2] = test system: proton motive force-driven multidrug efflux pump of P. aeruginosa PA14; experiment: Ethidium bromide (EtBr) efflux assay; assay type: cell-based, Pseudomonas aeruginosa; conditions: PRMSE, catechol at 0.25 times the MIC; CCCP 100 μM; untreated cells 30.9
Procedure: as §1

[3] = test system: proton motive force-driven multidrug efflux pump of P. aeruginosa PAO1; experiment: Ethidium bromide (EtBr) efflux assay; assay type: cell-based, Pseudomonas aeruginosa; conditions: PRMSE, catechol at 0.25 times the MIC; CCCP 100 μM; untreated cells 37.6
Procedure: as §1

[4] = test system: proton motive force-driven multidrug efflux pump of E. coli CFT073; experiment: Ethidium bromide (EtBr) efflux assay; assay type: cell-based, Escherichia coli; conditions: PRMSE, catechol at 0.25 times the MIC; CCCP 100 μM; untreated cells 36.9
Procedure: as §1

[5] = test system: cell membrane of P. mirabilis HI4320; experiment: BacLight membrane integrity assay; assay type: cell-based, Proteus mirabilis; conditions: PRMSE, catechol at 4 × MIC for 10 min; CTAB 10 μM; untreated = 100
Procedure: (§2) The BacLight kit (L-13152, Invitrogen™, Life Technologies Inc., Canada) is used to assess cell membrane damage. Overnight bacterial cultures are diluted 1:40 in fresh MHBII broth to a final volume of 5 mL, grown to an OD600 of 0.5-0.6, washed with filter-sterilized 10 mM phosphate buffered saline (PBS, pH 7.0) and resuspended in 1/10 of the original volume. […] Cultures are incubated at room temperature (21±2° C.) on a tube rocker for 10 min. At the end of the incubation period, an aliquot is taken for CFU counts and the remaining suspension is washed with 10 mM PBS and resuspended to an OD600) of 0.3. An aliquot (100 μL) of each bacterial suspension is removed and added to a 96-well, black, clear-bottom plate (Corning™, Fisher Scientific, ON, Canada) along with an equal volume of the BacLight™ reagent (2× stock solution, L13152, Invitrogen™, Life Technologies Inc., Canada) and the plates are incubated for 10 min at room temperature in the dark. At the end of the incubation period, fluorescence intensity is recorded for both kit components, SYTO-9 (ex/em 485/530 nm) and propidium iodide (ex/em 485/645 nm), using the microplate reader. Fluorescence readings from samples are normalized to the values obtained from untreated control to determine the ratio of membrane compromised cells to cells with intact membrane. […]

[6] = test system: cell membrane of P. aeruginosa PAO1; experiment: BacLight membrane integrity assay; assay type: cell-based, Pseudomonas aeruginosa; conditions: PRMSE, catechol at 4 × MIC for 10 min; CTAB 10 μM; untreated = 100
Procedure: (§3) The BacLight kit (L-13152, Invitrogen™, Life Technologies Inc., Canada) is used to assess cell membrane damage. Overnight bacterial cultures are diluted 1:40 in fresh MHBII broth to a final volume of 5 mL, grown to an OD600 of 0.5-0.6, washed with filter-sterilized 10 mM phosphate buffered saline (PBS, pH 7.0) and resuspended in 1/10 of the original volume. […] Cultures are incubated at room temperature (21±2° C.) on a tube rocker for 10 min. At the end of the incubation period, an aliquot is taken for CFU counts and the remaining suspension is washed with 10 mM PBS and resuspended to an OD600) of 0.3. An aliquot (100 μL) of each bacterial suspension is removed and added to a 96-well, black, clear-bottom plate (Corning™, Fisher Scientific, ON, Canada) along with an equal volume of the BacLight™ reagent (2× stock solution, L13152, Invitrogen™, Life Technologies Inc., Canada) and the plates are incubated for 10 min at room temperature in the dark. At the end of the incubation period, fluorescence intensity is recorded for both kit components, SYTO-9 (ex/em 485/530 nm) and propidium iodide (ex/em 485/645 nm), using the microplate reader. Fluorescence readings from samples are normalized to the values obtained from untreated control to determine the ratio of membrane compromised cells to cells with intact membrane. Cetyltrimethylammonium bromide (CTAB, Sigma-Aldrich Canada), a cationic detergent that is known to cause membrane damage, is used at concentration of 10 μM as a positive control for membrane disruption.

[7] = test system: cell membrane of P. aeruginosa PA14; experiment: BacLight membrane integrity assay; assay type: cell-based, Pseudomonas aeruginosa; conditions: PRMSE, catechol at 4 × MIC for 10 min; CTAB 10 μM; untreated = 100
Procedure: as §3

P. mirabilis HI4320 = experiment: Bacterial colony forming ability (CFU counts after exposure); assay type: cell-based, Proteus mirabilis; conditions: log decrease vs untreated control; 4 × MIC, 10 min; CTAB 10 μM
Procedure: as §3

E. coli CFT073 = experiment: as above; assay type: cell-based, Escherichia coli; conditions: log decrease vs untreated control; 4 × MIC, 10 min; CTAB 10 μM
Procedure: as §3

[8] = test system: cell membrane of E. coli CFT073; experiment: BacLight membrane integrity assay; assay type: cell-based, Escherichia coli; conditions: PRMSE, catechol at 4 × MIC for 10 min; CTAB 10 μM; untreated = 100
Procedure: as §2

P. aeruginosa PAO1 [9] = experiment: Bacterial colony forming ability (CFU counts after exposure); assay type: cell-based, Pseudomonas aeruginosa; conditions: log decrease vs untreated control; 4 × MIC, 10 min; CTAB 10 μM
Procedure: as §3

P. aeruginosa PA14 [10] = experiment: as above; assay type: cell-based, Pseudomonas aeruginosa; conditions: log decrease vs untreated control; 4 × MIC, 10 min; CTAB 10 μM
Procedure: as §3

P. aeruginosa PAO1 [11] = experiment: Checkerboard microdilution assay (growth inhibition synergy); assay type: cell-based, Pseudomonas aeruginosa; conditions: carbenicillin/PRMSE combination; FIC of the labelled component
Procedure: (§4) The checkerboard microdilution assay is used for evaluation of in vitro antimicrobial synergy between two compounds (i.e., antibiotic/PRMSE, antibiotic/pure phenolic compound, and pure phenolic compounds with each other). Two-fold serial dilutions are prepared in MHB-II for each of the two compounds under study. The serial dilutions are then loaded into 96 well plates to achieve combinations having different concentrations of each of the two compounds. Each well is subsequently inoculated with 10^6 CFU mL^−1 of the desired bacterial strain and incubated at 37° C. for 18 h under static conditions. The Fractional Inhibitory Concentration Index (FICI) for each combination is calculated by using the following formula: FICcomponent 1=MICcomponent 1, in combination/MICcomponent 1,alone FICI=FICcomponent 1+FICcomponent 2
(§5) The FICIs are interpreted as follows: FICI of […] (synergy); 0.5<FICI ≤1 (no interaction/indifference); FICI of >4 (antagonism).

P. aeruginosa PA14 [12] = experiment: as above; assay type: cell-based, Pseudomonas aeruginosa; conditions: carbenicillin/PRMSE combination; FIC of the labelled component
Procedure: as §4, §5

P. aeruginosa PAO1 [13] = experiment: Determination of minimum inhibitory concentration (MIC); assay type: cell-based; conditions: Pseudomonas aeruginosa, PAO1; antibiotic alone; MHB-II, 37° C., 18 h; read-out: MIC
Procedure: (§6) A range of concentration of antibiotics, ciprofloxacin (0.0003-0.25 μg mL^−1) and carbenicillin (0.5-512 μg mL^−1), are chosen due to their known potency against all four bacterial strains. Dilutions are prepared in flat bottom, 96 well microtitre plates (Falcon™, Corning™, Fisher Scientific, ON, Canada). Each well of a microtitre plate is then inoculated with the desired bacterial strain (grown in MHB-II and diluted to […]) and the plate is incubated at 37° C. for 18 h under static conditions. Bacterial growth is assessed by (i) monitoring the optical density of the cell suspension in each well at 600 nm (OD600 nm), and (ii) the resazurin microtitre plate assay. In the resazurin microtitre plate assay, each well of a microtitre plate is supplemented with 20 μM resazurin, incubated in the dark for 20 min at room temperature, followed by fluorescence measurements at ex/em 570/590 nm using a TECAN Infinite M200 Pro microplate reader (Tecan Group Ltd., Switzerland). The lowest concentration of a compound able to prevent increase in OD600 nm and resazurin fluorescence intensity is recorded as the MIC for that compound.

P. aeruginosa PA14 [14] = experiment: as above; assay type: cell-based; conditions: Pseudomonas aeruginosa, PA14; antibiotic alone; MHB-II, 37° C., 18 h; read-out: MIC
Procedure: as §6

Compound: N#CC(C#N)=NNc1cccc(Cl)c1 [CCCP, carbonyl cyanide m-chlorophenylhydrazone, reference compound]
- Efflux pump activity [1]: 14.5%
- Efflux pump activity [2]: 17%
- % EtBr efflux [3]: 19.3%
- Efflux pump activity [4]: 15.8%

Compound: CCCCCCCCCCCCCCCC[N+](C)(C)C.[Br-] [CTAB, cetyltrimethyl-ammonium bromide, reference compound]
- % cells with uncompromised membrane [5]: 0%
- % cells with uncompromised membrane [6]: 0%
- % cells with uncompromised membrane [7]: 0%
- Bacterial colony forming ability (Δ log CFU mL^−1) (P. mirabilis HI4320): 4.5 Δ log CFU mL^−1
- Bacterial colony forming ability (Δ log CFU mL^−1) (E. coli CFT073): 5.7 Δ log CFU mL^−1
- % cells with uncompromised membrane (BacLight assay) [8]: 0%
- Bacterial colony forming ability (Δ log CFU mL^−1) (P. aeruginosa PAO1 [9]): 5.1 Δ log CFU mL^−1
- Bacterial colony forming ability (Δ log CFU mL^−1) (P. aeruginosa PA14 [10]): 4.9 Δ log CFU mL^−1

Compound: CC1(C)S[C@@H]2[C@H](NC(=O)C(C(=O)O)c3ccccc3)C(=O)N2[C@H]1C(=O)O (stereo partly shown) [carbenicillin, reference compound]
- FIC (P. aeruginosa PAO1 [11]): 0.13
- FIC (P. aeruginosa PA14 [12]): 0.063
- MIC (P. aeruginosa PAO1 [13]): 64 µg/mL (≈ 169 µM)
- MIC (P. aeruginosa PA14 [14]): 128 µg/mL (≈ 338 µM)
